Measured values published in patent publication US11247976B2, “Synthetic ligands that modulate the activity of the RhlR quorum sensing receptor” (Wisconsin Alumni Research Foundation, priority 2016, dated 2022).

Legend:
[1] = biological target: T1, RhlR (Pseudomonas aeruginosa, UniProt P54292); experiment: E. coli RhlR reporter antagonism assay vs 10 μM BHL (JLD271/pJN105R2/pSC11-rhlI*); type: cell-based, P. aeruginosa; conditions: for inhibition at 10 µM: read-out: % inhibition (10 μM), compound at 10 μM in the presence of 10 μM BHL; for inhibition at 1000 µM: read-out: % inhibition (1 mM), compound at 1 mM in the presence of 10 μM BHL; for RhlR antagonist activity in words: E. coli reporter vs 10 μM BHL
T1 construct: expressed in transfected cells; host or cells: E. coli JLD271 (ΔsdiA) with pJN105R2 (arabinose-induced) and pSC11-rhlI*
Procedure: (§1) All media and reagents for bacterial culture were purchased from commercial sources. Bacteria were cultured in Luria-Bertani broth (LB) at 37° C. with shaking at 200 rpm unless otherwise noted. The bacterial reporter strains used for this study were (i) the heterologous E. coli strain JLD271 (ΔsdiA) harboring the RhlR expression plasmid pJN105R2 and the rhlI-lacZ transcriptional fusion reporter pSC11-rhlI*, (ii) the heterologous E. coli strain JLD271 (ΔsdiA) harboring the LasR expression plasmid pJN105L and the […] transcriptional fusion reporter pSC11, and (iii) the P. aeruginosa strain PAO-JP2 (ΔlasrhlI) harboring the rhlI-gfp transcriptional fusion reporter prhlI-LVAgfp. Reporter strains JLD271/pJN105R2/pSC11-rhlI* and JLD271/pJN105L/pSC11 were grown in LB containing 100 μg/mL ampicillin and 10 μg/mL gentamicin. Freezer stocks of bacterial strains were maintained at −80° C. in 1:1 LB:50% glycerol.
To evaluate the modulatory activities of library compounds on RhlR and LasR using E. coli reporters, the strains JLD271/pJN105R2/pSC11-rhlI* and JLD271/pJN105L/pSC11 were used, respectively, as previously described.^38, 51 The following modifications were used in the RhlR agonism reporter assay, non-native compounds (10 μM or 1 mM) were compared to 1 mM BHL as the positive control. Briefly, a subculture was prepared by diluting an overnight culture 1:10 with fresh media containing 100 μg/mL ampicillin and 10 μg/mL gentamicin, and was incubated until it had grown to OD600=0.45. In all assays, L-arabinose was added to a final concentration of 4 mg/mL to induce RhlR expression. For RhlR agonism assays, activities of test compounds were measured relative to 1 mM BHL (the concentration required to induce a maximal level of RhlR activity). […] Activity was measured relative to 10 μM BHL. Inhibition was calculated by subtracting 100% from the relative activity value. Thus, 0% inhibition mimics represents no competitive displacement of 10 μM BHL by a test compound. In all assays, modifications were made to the standard Miller assay protocol to accommodate the use of the chlorophenol red-β-D-galactopyranoside (CPRG) β-galactosidase substrate. After cell lysis, 150 μL of the aqueous layer was transferred from each well of a solvent-resistant 96-well microtiter plate to the wells of a new clear, flat-bottom 96-well microtiter plate. CPRG (4 mg/mL in phosphate-buffered saline) was added to each well in 25 μL volumes. Plates were incubated at 30° C. until the positive control wells developed a red color (approximately 30 min). The amount of processed CPRG substrate was assessed by measuring the absorbance of each well at 570 nm. Enzymatic activity was calculated using the following equation: adjusted Miller units=1000·Abs570/(OD600·t·V),
(§2) where t is the incubation time of substrate with lysate and V is the volume of culture lysed.
The RhlR-modulatory activity of the J library compounds was assessed in a heterologous reporter strain (E. coli JLD271 harboring plasmids pJN105R2 and pSC11-rhlI*) in order to isolate the RhlR receptor from upstream QS regulation (e.g. regulation by LasR). Thus, the extent to which compounds were directly modulating RhlR could be determined. These assays were performed by incubating compound-treated, mid-log phase E. coli reporter cells in 96-well microtiter plates, followed by Miller assay evaluation of ß-galactosidase activity.
RhlR agonism and antagonism screens of each compound were performed initially at 10 μM.

[2] = biological target: T1, RhlR; experiment: E. coli RhlR reporter agonism assay (JLD271/pJN105R2/pSC11-rhlI*); type: cell-based, P. aeruginosa; conditions: for RhlR agonist activity in words: single-concentration screen at 10 μM; for Emax: read-out: Maximum Activation (%); for RhlR agonist potency in words: dose-response
Procedure: as §1
To evaluate the modulatory activities of library compounds on RhlR and LasR using E. coli reporters, the strains JLD271/pJN105R2/pSC11-rhlI* and JLD271/pJN105L/pSC11 were used, respectively, as previously described.^38, 51 The following modifications were used in the RhlR agonism reporter assay, non-native compounds (10 μM or 1 mM) were compared to 1 mM BHL as the positive control. Briefly, a subculture was prepared by diluting an overnight culture 1:10 with fresh media containing 100 μg/mL ampicillin and 10 μg/mL gentamicin, and was incubated until it had grown to OD600=0.45. In all assays, L-arabinose was added to a final concentration of 4 mg/mL to induce RhlR expression. For RhlR agonism assays, activities of test compounds were measured relative to 1 mM BHL (the concentration required to induce a maximal level of RhlR activity). For RhlR antagonism assays, test compounds were competed against a concentration of BHL approximately equal to its EC50 value (10 μM). Activity was measured relative to 10 μM BHL. Inhibition was calculated by subtracting 100% from the relative activity value. Thus, 0% inhibition mimics represents no competitive displacement of 10 μM BHL by a test compound. In all assays, modifications were made to the standard Miller assay protocol to accommodate the use of the chlorophenol red-β-D-galactopyranoside (CPRG) β-galactosidase substrate. After cell lysis, 150 μL of the aqueous layer was transferred from each well of a solvent-resistant 96-well microtiter plate to the wells of a new clear, flat-bottom 96-well microtiter plate. CPRG (4 mg/mL in phosphate-buffered saline) was added to each well in 25 μL volumes. Plates were incubated at 30° C. until the positive control wells developed a red color (approximately 30 min). The amount of processed CPRG substrate was assessed by measuring the absorbance of each well at 570 nm. Enzymatic activity was calculated using the following equation: adjusted Miller units=1000·Abs570/(OD600·t·V),
as §2
Because LuxR-type receptors are often unstable in solution, preventing the use of in vitro assays to directly assess small molecule agonism and antagonism, reporter gene assays represent a standard method for screening small-molecule libraries for LuxR-type receptor modulation. Previously reported strains for this purpose were used in the current study.^38 Synthetic N-butanoyl L-homoserine lactone (BHL), the native ligand of RhlR, was used as the positive control for receptor activation. Commonly, agonists are measured relative to maximum possible receptor activation within a particular assay medium;^40 because the dose-response curve of BHL is distinctly shallow in these RhlR reporters, a high concentration of BHL is required to maximally activate RhlR. In this study, activation of compounds was measured relative to that elicited by 1 mM BHL (the concentration of BHL used causes no aberrant growth effects in the reporter strain). […]

[3] = negative = agonism stronger than 10 μM BHL alone
[4] = compound at 10 μM, RhlR activity relative to 1 mM BHL, E. coli reporter

T1 sequence (P54292 whole entry): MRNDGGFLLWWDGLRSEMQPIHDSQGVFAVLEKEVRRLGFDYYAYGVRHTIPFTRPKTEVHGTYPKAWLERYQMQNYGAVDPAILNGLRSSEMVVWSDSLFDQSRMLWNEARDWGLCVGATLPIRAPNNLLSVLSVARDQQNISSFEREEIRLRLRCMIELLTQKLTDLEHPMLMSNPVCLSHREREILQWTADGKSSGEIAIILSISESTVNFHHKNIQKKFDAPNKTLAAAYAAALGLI

| Compound | inhibition at 10 µM [1, 3] [%] | inhibition at 1000 µM [1, 3] [%] | activation at 10 µM [2, 4] [%] | RhlR agonist activity in words ([2]; E. coli reporter) | EC50 [2] [µM] | Emax [2] [%] | RhlR agonist potency in words ([2]; E. coli reporter) | RhlR antagonist activity in words [1] | % inhibition (10 μM) ([1]; compound at 10 μM in the presence of 10 μM BHL, negative = agonism stronger than 10 μM BHL alone) [%] | % inhibition at 200 µM ([1]; screened at a maximal concentration of 200 microM (solubility), in the presence of 10 μM BHL) [%] | % activation [2, 4] [%] |
| --- | --- | --- | --- | --- | --- | --- | --- | --- | --- | --- | --- |
| CCC(=O)N[C@H]1CCOC1=O [Compound C3-AHL] | -5 | -66 | 25 | comparably less active than their respective counterparts |  |  |  |  |  |  |  |
| CCCCC(=O)N[C@H]1CCOC1=O [Compound C5-AHL] | -18 | -91 | 53 | comparable RhlR activation to that of BHL | 10.8 | 80 |  |  |  |  |  |
| C=CCC(=O)N[C@H]1CCOC1=O [Compound J2] | 6 | -110 | 39 | comparably less active than their respective counterparts |  |  |  |  |  |  |  |
| C=CCCCC(=O)N[C@H]1CCOC1=O [Compound J3] | -4 | -69 | 41 |  |  |  |  |  |  |  |  |
| C/C=C/CC(=O)N[C@H]1CCOC1=O [Compound J4] | 9 | -47 | 21 |  |  |  |  |  |  |  |  |
| C/C=C\CC(=O)N[C@H]1CCOC1=O [Compound J5] | -12 | -74 | 52 | activities statistically insignificant from native ligand BHL | 6.93 | 80 |  |  |  |  |  |
| C#CCCC(=O)N[C@H]1CCOC1=O [Compound J7] | -7 | -83 | 45 | activities statistically insignificant from native ligand BHL |  |  |  |  |  |  |  |
| C#CCCCC(=O)N[C@H]1CCOC1=O [Compound J8] | -2 | -76 | 34 |  |  |  |  |  |  |  |  |
| CC(C)C(=O)N[C@H]1CCOC1=O [Compound J17] | -30 | -112 | 62 | comparable RhlR activation to that of BHL | 4.89 | 95 | significantly more potent than BHL |  |  |  |  |
| CCC(C)C(=O)N[C@H]1CCOC1=O (some centres unmarked) [Compound J19] | -24 | -101 | 55 | comparable RhlR activation to that of BHL | 7.77 | 95 |  |  |  |  |  |
| CC(C)(C)C(=O)N[C@H]1CCOC1=O [Compound J20] | 0 | 25 | 1 | inactive as agonists |  |  |  | capable of inhibiting RhlR activity to a statistically significant extent |  |  |  |
| CCC(C)(C)C(=O)N[C@H]1CCOC1=O [Compound J21] | 3 | 7 | 5 | inactive as agonists |  |  |  |  |  |  |  |
| CCC(CC)C(=O)N[C@H]1CCOC1=O [Compound J22] | 2 | -66 | 28 |  |  |  |  |  |  |  |  |
| O=C(N[C@H]1CCOC1=O)C1CC1 [Compound J23] | -2 | -69 | 32 | comparably less active than their respective counterparts |  |  |  |  |  |  |  |
| O=C(CC1CC1)N[C@H]1CCOC1=O [Compound J25] | -47 | -108 | 70 | strong | 2.76 | 95 | significantly more potent than BHL |  |  |  |  |
| CC1(C(=O)N[C@H]2CCOC2=O)CC1 [Compound J27, 1-methyl-cylclopropanoyl AHL] | 2 | 24 | 2 | inactive |  |  |  | capable of inhibiting RhlR activity to a statistically significant extent |  |  |  |
| CCCCCCCCCC(=O)CC(=O)N[C@H]1CCOC1=O [OdDHL, N-(3-oxododecanoyl) HL, reference compound] |  |  |  |  |  |  |  |  | 18 | 53 | 5 |
| CCCC(=O)NC1CCOC1 (centres unmarked) [RN2] | -5 | 20 | 0 |  |  |  |  |  |  |  |  |
| CCCC(=O)NC1CCCC1 [RN4] | 9 | 45 | 0 |  |  |  |  |  |  |  |  |
| CCCC(=O)N[C@@H]1CCOC1=O [RN5] | 1 | 11 | 2 |  |  |  |  |  |  |  |  |
| CCCS(=O)(=O)N[C@H]1CCOC1=O [RN6] | 8 | 55 | 1 |  |  |  |  |  |  |  |  |
| CCCC(=O)O[C@H]1CCOC1=O [RN7] | 4 | 6 | 0 |  |  |  |  |  |  |  |  |
| CCCC(=O)N[C@H]1CCNC1=O [RN9] | -1 | 35 | 1 |  |  |  |  |  |  |  |  |
| CCCC(=O)NCC1CCCO1 (centres unmarked) [RN10] | 1 | 57 | 0 |  |  |  |  |  |  |  |  |
| CCCC(=O)NCC1CCCN1 (centres unmarked) [RN11] | -3 | -1 | 0 |  |  |  |  |  |  |  |  |
